System: gerbils
Settings: in vivo

COc1cc(CNC(=O)CCCC/C=C/C(C)C)ccc1O [capsaicin]
Rodent repellent effect, overall: very effective rodent repellent

From US20070093392A1 (priority 2005, published 2007)
